Laboratory results as given in patent US20070275999A1, “PHARMACEUTICAL COMPOSITIONS CONTAINING A HYPOGLYCEMIC AGENT(S) FOR IMPROVING OR TREATING IMPAIRED GLUCOSE TOLERANCE, BORDERLINE DIABETES, INSULIN RESISTANCE OR HYPERINSULINEMIA” (Ajinomoto Co., Inc., priority 2005, published 2007).

How the values were obtained:
Zucker Fatty (ZF) rats [1] = experiment: Circadian changes of blood glucose and insulin under restricted feeding after four weeks of treatment; type: in vivo, rat
From the text: The effectiveness of mitiglinide was examined by using Zucker Fatty (ZF) rats, which have the feature of obesity and insulin resistance. It is known that though ZF rats have hyperinsulinemia and impaired glucose tolerance, their fasting blood glucose is within a normal range and, therefore, their pathology is similar to IGT in human being (Br J Pharmacol 125, 1708-14, 1998).
Male Zucker Fatty rats of 6 weeks old were introduced and acclimatized to the restricted feeding of one hour each (9:00 to 10:00 and 15:00 to 16:00) twice per a day. After acclimatization for one week, the rats were randomly divided into two groups, and drugs were administered to them for four weeks. As the drugs, mitiglinide suspended in 0.5% methylcellulose was forcibly orally administered to one group to become a dose of 3 mg/kg, and only 0.5% methylcellulose solution that is a dose vehicle was forcibly orally administered to the other group just before each meal twice per a day. The circadian changes of their blood glucose and insulin that occurred under the restricted feeding were measured upon starting the administration and in the fourth week after its start. The drugs were not administered on the measurement day, and their blood was collected through the caudal vein before morning feeding (9:00), one hour after the feeding (10:00), two hours after the feeding (11:00), before afternoon feeding (15:00), one hour after the feeding (16:00), and two hours after the feeding (17:00). Then, their blood glucose and insulin were measured in accordance with the routine method.

Zucker Fatty (ZF) rats [2] = experiment: Insulin tolerance test (ITT); type: in vivo, rat
Method: On another day of the fourth week, the insulin tolerance test (ITT) was conducted in order to examine the degree of improvement of the general insulin resistance. Commercially available insulin preparation (NOVORIN R, NOVO) diluted to 0.5 U/mL with a normal saline solution was subcutaneously injected to the back of ZF rats fasted overnight to become 0.5 U/kg. Their blood was collected through the caudal vein 15, 30, 60, 120 and 180 minutes after the administration to measure their blood glucose. The blood glucose was measured in accordance with the routine method.
In response to the above results, ITT was conducted in order to more precisely quantify the degree of improvement of the general insulin sensitivity. […] However, the blood glucose lowered by about 50% of the level before the administration in 60 minutes after the administration of insulin due to the treatment by mitiglinide.

[3] = feeding 9:00 to 10:00 and 15:00 to 16:00, fourth week, 3 mg/kg
[4] = male ZF rats, 3 mg/kg orally just before each meal twice per day for four weeks, measured in fourth week, no drug on measurement day

O=C(O)[C@H](CC(=O)N1C[C@H]2CCCC[C@H]2C1)Cc1ccccc1 [Mitiglinide, (2S)-2-benzyl-4-[(3aR, 7aS) -octahydro-2H-isoindole-2-yl]-4-oxobutanoic acid]
Circadian changes of the blood glucose (FIG. 1) (Zucker Fatty (ZF) rats [1]; [3]): no change | Insulin level in the blood plasma (FIG. 2) (Zucker Fatty (ZF) rats [1]; [3]): decrease of the insulin level was clearly seen | Sum of the circadian changes of blood glucose (Zucker Fatty (ZF) rats [1]; [4]): 1050 ± 20 mg·h/dL | Sum of the circadian changes of insulin (Zucker Fatty (ZF) rats [1]; [4]): 224 ± 11 ng·h/mL | Sum of blood glucose (Zucker Fatty (ZF) rats [2]; ITT in fourth week, insulin 0.5 U/kg s.c., ZF rats fasted overnight, blood 15-180 min after insulin): 243 ± 7 mg·h/dL | Blood glucose lowering relative to the level before the administration of insulin (Zucker Fatty (ZF) rats [2]; ITT, 60 minutes after insulin 0.5 U/kg s.c., FIG. 3): about 50%
